Results taken from PMC7180948, “New Insights into 4-Anilinoquinazolines as Inhibitors of Cardiac Troponin I–Interacting Kinase (TNNi3K)” (Molecules, 2020).

Key:
Assay in all cases: biochemical
Design in all cases: KINOMEscan competition binding panel (Eurofins DiscoverX), single concentration, percent inhibition
Details in all cases: read-out: 15 at 1 µM % inhibition
[1] = molecular target: T1, PIK4CB (Homo sapiens, UniProt Q9UBF8)
T1 construct: gene PI4KB
In short: (§1)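 A single 1 µM concentration of each compound is screened across upwards of 400 human kinases using the KINOMEscan format.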

[2] = molecular target: MAP3K4 (Homo sapiens, UniProt Q9Y6R4)
In short: as §1

[3] = molecular target: BRAF(V600E) (Homo sapiens, UniProt P15056, V600E)
In short: as §1

[4] = molecular target: T2, DRAK1 (Homo sapiens, UniProt Q9UEE5)
T2 construct: gene STK17A
In short: as §1

[5] = molecular target: PIK3CA(H1047L) (Homo sapiens, UniProt P42336, H1047L)
In short: as §1

[6] = molecular target: T3, CDK4-cyclinD3 (Homo sapiens, UniProt P11802)
T3 construct: cyclinD3
In short: as §1

[7] = molecular target: T4, CDC2L5 (Homo sapiens, UniProt Q14004)
T4 construct: gene CDK13
T4 sequence (Q14004 whole entry): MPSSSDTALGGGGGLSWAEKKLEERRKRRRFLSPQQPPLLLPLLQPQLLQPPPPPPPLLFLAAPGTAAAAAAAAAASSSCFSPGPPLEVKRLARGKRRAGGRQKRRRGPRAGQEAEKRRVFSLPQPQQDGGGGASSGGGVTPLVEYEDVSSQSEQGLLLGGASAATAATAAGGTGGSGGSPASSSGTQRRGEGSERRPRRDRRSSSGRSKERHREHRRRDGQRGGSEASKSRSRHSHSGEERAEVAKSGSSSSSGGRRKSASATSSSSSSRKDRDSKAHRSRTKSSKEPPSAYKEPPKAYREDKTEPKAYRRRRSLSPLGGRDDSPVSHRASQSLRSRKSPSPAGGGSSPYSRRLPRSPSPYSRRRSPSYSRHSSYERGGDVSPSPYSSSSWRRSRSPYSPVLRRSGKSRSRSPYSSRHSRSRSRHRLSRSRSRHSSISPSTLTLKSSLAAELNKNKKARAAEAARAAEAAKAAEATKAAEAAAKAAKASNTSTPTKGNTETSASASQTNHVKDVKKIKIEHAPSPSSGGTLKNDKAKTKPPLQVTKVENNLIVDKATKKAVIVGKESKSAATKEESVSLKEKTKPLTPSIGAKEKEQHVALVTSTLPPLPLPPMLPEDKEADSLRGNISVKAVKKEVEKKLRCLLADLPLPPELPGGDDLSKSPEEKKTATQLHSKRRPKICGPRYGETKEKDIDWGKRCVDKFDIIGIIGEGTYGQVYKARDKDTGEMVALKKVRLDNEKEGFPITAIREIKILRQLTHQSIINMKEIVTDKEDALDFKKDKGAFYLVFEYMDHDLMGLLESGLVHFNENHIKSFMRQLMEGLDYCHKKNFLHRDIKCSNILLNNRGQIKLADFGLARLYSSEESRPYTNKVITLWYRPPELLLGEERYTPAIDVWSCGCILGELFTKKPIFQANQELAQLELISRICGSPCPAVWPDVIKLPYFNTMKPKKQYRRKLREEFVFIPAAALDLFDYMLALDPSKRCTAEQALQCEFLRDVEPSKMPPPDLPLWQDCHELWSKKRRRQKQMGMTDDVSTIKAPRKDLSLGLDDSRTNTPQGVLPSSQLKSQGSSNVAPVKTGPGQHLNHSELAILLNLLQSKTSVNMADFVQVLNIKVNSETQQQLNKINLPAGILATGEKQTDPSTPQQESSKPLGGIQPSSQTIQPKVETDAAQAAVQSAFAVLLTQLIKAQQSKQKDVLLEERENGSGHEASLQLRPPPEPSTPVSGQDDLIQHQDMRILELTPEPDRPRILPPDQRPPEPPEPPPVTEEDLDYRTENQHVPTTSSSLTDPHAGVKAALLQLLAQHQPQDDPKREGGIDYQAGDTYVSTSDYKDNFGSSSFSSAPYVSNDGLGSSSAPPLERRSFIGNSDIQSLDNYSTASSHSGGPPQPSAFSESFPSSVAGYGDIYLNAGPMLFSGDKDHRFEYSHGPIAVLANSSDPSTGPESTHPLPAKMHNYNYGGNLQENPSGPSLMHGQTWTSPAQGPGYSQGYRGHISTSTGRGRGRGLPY
In short: as §1

[8] = molecular target: T5, p38-beta (Homo sapiens, UniProt Q15759)
T5 construct: gene MAPK11
T5 sequence (Q15759 whole entry): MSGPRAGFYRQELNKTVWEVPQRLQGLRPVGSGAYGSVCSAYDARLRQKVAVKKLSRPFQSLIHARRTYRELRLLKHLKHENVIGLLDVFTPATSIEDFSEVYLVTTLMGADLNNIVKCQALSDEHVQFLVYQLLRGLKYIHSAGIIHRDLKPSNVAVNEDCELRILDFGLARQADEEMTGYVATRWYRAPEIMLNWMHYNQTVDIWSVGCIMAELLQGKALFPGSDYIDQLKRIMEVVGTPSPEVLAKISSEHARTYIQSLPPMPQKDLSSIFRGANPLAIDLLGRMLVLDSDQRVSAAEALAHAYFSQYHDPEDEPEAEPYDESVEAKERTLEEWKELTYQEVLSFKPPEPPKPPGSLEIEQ
In short: as §1

[9] = molecular target: CASK (Homo sapiens, UniProt O14936)
In short: as §1

[10] = molecular target: MARK1 (Homo sapiens, UniProt Q9P0L2)
In short: as §1

[11] = molecular target: CAMK1G (Homo sapiens, UniProt Q96NX5)
In short: as §1

[12] = molecular target: T6, LZK (Homo sapiens, UniProt O43283)
T6 construct: gene MAP3K13
In short: as §1

[13] = molecular target: RET(V804M) (Homo sapiens, UniProt P07949, V804M)
In short: as §1

[14] = molecular target: MKNK2 (Homo sapiens, UniProt Q9HBH9)
Sequence of MKNK2 (Q9HBH9 whole entry): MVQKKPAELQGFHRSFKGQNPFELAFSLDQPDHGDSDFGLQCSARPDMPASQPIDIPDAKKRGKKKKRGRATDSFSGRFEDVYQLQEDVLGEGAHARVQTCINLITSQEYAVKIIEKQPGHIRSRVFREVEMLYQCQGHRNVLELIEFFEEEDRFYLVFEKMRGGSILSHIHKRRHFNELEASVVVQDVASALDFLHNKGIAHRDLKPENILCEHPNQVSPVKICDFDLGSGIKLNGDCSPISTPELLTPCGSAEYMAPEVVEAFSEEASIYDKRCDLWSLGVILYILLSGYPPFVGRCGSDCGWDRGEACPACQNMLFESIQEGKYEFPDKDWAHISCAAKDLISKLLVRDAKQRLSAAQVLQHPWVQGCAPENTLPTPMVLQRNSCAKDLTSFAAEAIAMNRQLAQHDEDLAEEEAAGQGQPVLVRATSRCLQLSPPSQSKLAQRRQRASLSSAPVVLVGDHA
In short: as §1

[15] = molecular target: T7, CDK4-cyclinD1 (Homo sapiens, UniProt P11802)
T7 construct: cyclinD1
In short: as §1

[16] = molecular target: T8, AMPK-alpha2 (Homo sapiens, UniProt P54646)
T8 construct: gene PRKAA2
T8 sequence (P54646 whole entry): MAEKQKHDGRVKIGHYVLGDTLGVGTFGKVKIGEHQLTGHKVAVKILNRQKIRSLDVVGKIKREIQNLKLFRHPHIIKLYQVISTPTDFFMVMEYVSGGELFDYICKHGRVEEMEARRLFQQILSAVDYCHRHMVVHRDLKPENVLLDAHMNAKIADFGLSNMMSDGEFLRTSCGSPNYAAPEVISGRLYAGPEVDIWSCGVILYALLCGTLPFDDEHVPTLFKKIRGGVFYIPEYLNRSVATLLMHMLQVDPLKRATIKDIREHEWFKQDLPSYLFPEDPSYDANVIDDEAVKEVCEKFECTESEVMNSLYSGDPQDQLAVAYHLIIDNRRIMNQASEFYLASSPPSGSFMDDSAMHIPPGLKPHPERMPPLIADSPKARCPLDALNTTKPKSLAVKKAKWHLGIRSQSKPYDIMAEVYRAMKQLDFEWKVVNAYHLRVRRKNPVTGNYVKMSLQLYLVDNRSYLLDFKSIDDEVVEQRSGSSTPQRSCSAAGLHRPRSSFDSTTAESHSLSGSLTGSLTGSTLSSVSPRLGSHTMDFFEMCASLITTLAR
In short: as §1

[17] = molecular target: T9, CTK (Homo sapiens, UniProt P42679)
T9 construct: gene MATK
In short: as §1

[18] = molecular target: EGFR(G719C) (Homo sapiens, UniProt P00533, G719C)
Sequence of EGFR(G719C) (P00533 whole entry G719C): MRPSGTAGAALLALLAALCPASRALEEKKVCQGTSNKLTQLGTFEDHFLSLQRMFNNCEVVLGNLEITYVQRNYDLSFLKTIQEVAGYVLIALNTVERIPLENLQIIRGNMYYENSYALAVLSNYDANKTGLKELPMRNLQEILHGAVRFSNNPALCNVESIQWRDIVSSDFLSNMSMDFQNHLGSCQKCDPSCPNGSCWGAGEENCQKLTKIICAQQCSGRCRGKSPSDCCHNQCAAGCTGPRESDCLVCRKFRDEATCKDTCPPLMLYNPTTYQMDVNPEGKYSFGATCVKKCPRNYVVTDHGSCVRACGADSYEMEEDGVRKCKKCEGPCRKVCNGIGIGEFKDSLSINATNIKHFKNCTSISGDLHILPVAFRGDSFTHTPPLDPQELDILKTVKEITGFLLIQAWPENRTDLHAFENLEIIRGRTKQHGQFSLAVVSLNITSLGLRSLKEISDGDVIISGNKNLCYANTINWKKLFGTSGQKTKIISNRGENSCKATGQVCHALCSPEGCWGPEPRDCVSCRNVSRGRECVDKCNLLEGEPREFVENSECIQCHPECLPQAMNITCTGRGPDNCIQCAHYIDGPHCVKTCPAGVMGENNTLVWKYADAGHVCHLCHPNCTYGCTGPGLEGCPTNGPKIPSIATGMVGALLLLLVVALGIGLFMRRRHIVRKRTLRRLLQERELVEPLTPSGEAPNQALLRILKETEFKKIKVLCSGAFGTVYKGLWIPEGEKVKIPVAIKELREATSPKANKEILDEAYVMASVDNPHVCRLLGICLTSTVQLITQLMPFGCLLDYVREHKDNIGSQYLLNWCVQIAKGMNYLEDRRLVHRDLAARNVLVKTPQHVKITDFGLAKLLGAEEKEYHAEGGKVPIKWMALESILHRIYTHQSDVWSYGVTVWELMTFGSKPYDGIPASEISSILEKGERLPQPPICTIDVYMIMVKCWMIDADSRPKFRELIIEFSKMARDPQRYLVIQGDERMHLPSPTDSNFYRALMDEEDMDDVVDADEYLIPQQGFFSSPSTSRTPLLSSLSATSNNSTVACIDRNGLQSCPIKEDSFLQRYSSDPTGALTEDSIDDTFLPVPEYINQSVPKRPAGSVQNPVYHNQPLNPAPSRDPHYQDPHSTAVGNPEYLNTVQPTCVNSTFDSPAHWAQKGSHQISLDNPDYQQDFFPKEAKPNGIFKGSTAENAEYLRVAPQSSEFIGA
In short: as §1

[19] = molecular target: GRK3 (Homo sapiens, UniProt P35626)
In short: as §1

[20] = molecular target: CAMK4 (Homo sapiens, UniProt Q16566)
In short: as §1

[21] = molecular target: MAST1 (Homo sapiens, UniProt Q9Y2H9)
In short: as §1

[22] = molecular target: RET (Homo sapiens, UniProt P07949)
In short: as §1

[23] = molecular target: T10, PKAC-beta (Homo sapiens, UniProt P22694)
T10 construct: gene PRKACB
In short: as §1

[24] = molecular target: PAK3 (Homo sapiens, UniProt O75914)
In short: as §1

T1 sequence (Q9UBF8 whole entry): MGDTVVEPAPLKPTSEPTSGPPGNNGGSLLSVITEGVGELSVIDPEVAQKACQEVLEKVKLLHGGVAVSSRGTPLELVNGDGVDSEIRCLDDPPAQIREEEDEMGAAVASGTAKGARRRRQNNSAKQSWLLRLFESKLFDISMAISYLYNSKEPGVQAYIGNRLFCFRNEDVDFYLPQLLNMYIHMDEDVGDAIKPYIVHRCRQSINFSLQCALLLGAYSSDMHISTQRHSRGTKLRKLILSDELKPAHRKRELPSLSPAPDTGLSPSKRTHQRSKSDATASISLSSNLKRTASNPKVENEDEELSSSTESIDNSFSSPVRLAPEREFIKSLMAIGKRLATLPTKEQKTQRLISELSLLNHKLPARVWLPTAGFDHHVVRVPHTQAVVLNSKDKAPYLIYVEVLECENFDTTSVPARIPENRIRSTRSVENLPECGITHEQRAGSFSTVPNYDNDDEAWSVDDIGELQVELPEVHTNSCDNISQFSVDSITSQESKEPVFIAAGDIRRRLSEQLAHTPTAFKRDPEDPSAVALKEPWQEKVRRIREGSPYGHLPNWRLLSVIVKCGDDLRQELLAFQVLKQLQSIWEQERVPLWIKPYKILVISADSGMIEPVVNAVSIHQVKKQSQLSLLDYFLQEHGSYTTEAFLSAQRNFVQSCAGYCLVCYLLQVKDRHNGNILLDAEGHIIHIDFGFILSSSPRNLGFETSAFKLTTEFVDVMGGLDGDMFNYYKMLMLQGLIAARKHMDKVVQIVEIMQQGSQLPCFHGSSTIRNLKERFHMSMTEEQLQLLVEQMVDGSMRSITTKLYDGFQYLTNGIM

- inhibition at 1 µM [1]: 12%
- inhibition at 1 µM [2]: 0%
- inhibition at 1 µM [3]: 24%
- inhibition at 1 µM [4]: 0%
- inhibition at 1 µM [5]: 21%
- inhibition at 1 µM [6]: 15%
- inhibition at 1 µM [7]: 23%
- inhibition at 1 µM [8]: 0%
- inhibition at 1 µM [9]: 26%
- inhibition at 1 µM [10]: 0%
- inhibition at 1 µM [11]: 0%
- inhibition at 1 µM [12]: 16%
- inhibition at 1 µM [13]: 0%
- inhibition at 1 µM [14]: 38%
- inhibition at 1 µM [15]: 36%
- inhibition at 1 µM [16]: 2%
- inhibition at 1 µM [17]: 0%
- inhibition at 1 µM [18]: 0%
- inhibition at 1 µM [19]: 32%
- inhibition at 1 µM [20]: 1%
- inhibition at 1 µM [21]: 14%
- inhibition at 1 µM [22]: 0%
- inhibition at 1 µM [23]: 0%
- inhibition at 1 µM [24]: 4%
Compound: CNS(=O)(=O)c1ccc(N(C)C)c(Nc2nc(C)nc3cc(OC)c(OC)cc23)c1 [compound 15, 3-((6,7-dimethoxy-2-methylquinazolin-4-yl)amino)-4-(dimethylamino)-N-methylbenzenesulfonamide]
